Data taken from patent US9814727B2, “Piperazine phenothiazine derivatives for treating spasticity” (UNIVERSITE D'AIX-MARSEILLE, priority 2014, dated 2017).

Columns and labels:
[1] = tested on: paw withdrawal threshold; experiment: Von Frey test following spinal cord injury (mechanical hyperalgesia); format: in vivo, rat; details: for effect on mechanical hyperalgesia (paw withdrawal threshold): 21 days after injury
Experimental: (§1) Thoracic spinal unilateral hemisection in rats was used as a model of SCI. Adult female Wistar Rats (Charles River) were anaesthetized intraperitoneally with 50 mg/kg ketamine (Imalgen®, Merial, Duluth, Ga., USA) and 0.25 mg/kg Medetomidine (Domitor®, Janssen Pharmaceutica, Beerse, Belgium). The antibiotic Amoxycyline (Duphamox LA®, Pfizer, 150 mg/kg) was injected subcutaneously before the surgery. The skin was cut longitudinally over T8-T10 vertebra and a local anesthetic (2% Procaine hydrochloride, Pharmy H, Saint-Germain-en-Laye, France) was injected intramuscularly before cuting the paravertebral muscles. A laminectomy was performed at vertebral segment T9. The spinal cord was hemisected on the left side with microscissors at the level of the T8 spinal segment. Finally, paravertebral muscles and skin were sutured and rats were treated with buprenorphine for analgesia (1 injection before awakening from anaesthesia and 2 more injections over the next 24 h period). Aspirin was diluted in their water bottles for 3 days (aspegic, 200 mg in 150 ml). The rats weight, temperature and water intake were checked and their bladder was emptied manually twice a day until recovery of autonomy.
At day 21 post lesion, the rats were tested once with Von Frey hair and plantar test in order to have their baseline values. […] Then the effects of the drug was measured alternatively on mechanical and thermal hyperalgesia every 15 min, that is at […] after injection, respectively.
The plantar surface of the left, then right hind paws were probed using von Frey monofilaments £Bioseb, Paris, France) which apply different calibrated forces when they bent. The test started by applying a Von Frey hair of 8 g for 3 sec, and the 50% withdrawal thresholds of each hindlimb in response to tactile stimulation were measured using the up and down method (Chaplan et al., 1994).

[2] = tested on: KCC2; experiment: Western blot of KCC2 in total cell lysate of NSC-34 KCC2 cells; format: cell-based; details: 10 μM, 30 min of cell treatment, NSC-34 KCC2 whole cell lysate
Experimental: NSC-34 wild type and KCC2 were cultured in DMEM (Life technologies, Carlsbad, Calif., USA) supplemented with 10% FBS (Life technologies), 50 units/mL penicillin, and 50 µg/mL streptomycin (Life technologies).
Wild-type and KCC2-expressing HEK293 cells or NSC-34 were harvested and homogenised in lysis buffer (PBS containing 1% Igepal CA-630, 0.1% SDS, 10 mM sodium pyrophosphate, 10 mM NaF, 10 mM NaVO4, 10 mM iodoacetamide and cocktail protease inhibitors and centrifugated at 18000 g for 30 minutes at 4° C. Protein concentration in supernatants was determined using DC protein assay (Bio-rad). Same amounts of total proteins were separated in 6% or 7% SDS PAGE and transferred onto PVDF membrane. Once blocked in Tris Buffer Saline 0.05% Tween 5% non-fat dry milk, membranes were probes over night at 4° C. with KCC2 antibody (1/1000 dilution, Merck-Millipore, Billerica, Mass., USA), or anti-phospho-serine940 KCC2 (1/1000 dilution, PhosphoSolutions) or anti-Actin antibody (1/500 dilution, Sigma Aldrich). Anti-rabbit secondary antibody HRP conjugated was used for detection in chemiluminescent system (Thermo Scientific, Waltham, Mass., USA). Signal intensity was measured with the image analysis software Image lab (Bio-Rad, Hercules, Calif., USA). […]

[3] = tested on: Hoffmann reflex (H-reflex); experiment: Assessment of spasticity following spinal cord injury (H reflex); format: in vivo, rat; details: 10 μg/kg i.v.
Experimental: as §1, with “spinal section” for “spinal unilateral hemisection”, “Rats (225/250 g Charles” for “Rats (Charles”, “was transected” for “was hemisected on the left side”, “and 4” for “and 2”, “next 48” for “next 24”, “period). […]” for “period). Aspirin was diluted in their water bottles for 3 days (aspegic, 200 mg in 150 ml). The rats weight, temperature and water intake were checked and their bladder was emptied manually twice a day until recovery of autonomy.”
At day 29 post lesion, the H reflex in the rats under ketamine anesthesia (100 mg/kg, i.p.) were measured using a pair of stainless steel needle electrodes transcutaneously inserted into the vicinity of the tibial nerve stimulation. […]
The H reflex was measured three times at frequencies of 0.2 Hz 1 Hz, 2 Hz and 5 Hz to have their baseline values. […] The H reflex was measured each 20 minutes, five times at frequencies of 0.2 Hz 1 Hz, 2 Hz and 5 Hz

For `CN1CCN(CCCN2c3ccccc3Sc3ccc(Cl)cc32)CC1` [compound 2, 2-chloro-10-[3-(4-methyl-1-piperazinyl)propyl]-10H-phenothiazine], the “time after injection at which effects were significant” value ([1]; i.p. or i.v., Von Frey test) was 40 min, the “effect on mechanical hyperalgesia (paw withdrawal threshold)” value ([1]; intraperitoneally 2 mg/kg) was “temporarily reduces mechanical hyperalgesia” and the “effect on mechanical hyperalgesia (paw withdrawal threshold)” value ([1]; intravenously 50 ng/kg) was “temporarily reduces mechanical hyperalgesia”. The “phosphorylated KCC2 on serine 940” value [2] was “increased”, the “total KCC2 protein level (monomers+oligomers)” value [2] was “increased” and the “decrease of the H reflex” value ([3]; 80 min after injection, 1, 2 and 5 Hz, adult rats after SCI) was about 30%. The “effect on spasticity after spinal cord injury” value ([3]; 80 minutes, adult rats 4 weeks after SCI) was “reduces spasticity”.
